We go through 4 compounds from article PMC6510361 (Medicine and Pharmacy Reports, 2019).

For series [1] the following is noted: cited from earlier work.
In a further series the test system is CYP2D6. The following applies: sertraline, fluvoxamine: ref 17; bupropion in vitro ref 12, in vivo ref 13; cited from earlier work.
In series [2] the test system is rat pooled liver microsomes.
The next series relates to CYP2C9. Particulars: cited from earlier work.
A further series relates to CYP1A2. Particulars: cited from earlier work.

For the compound `COc1cc(O)ccc1OCCNCC(O)COc1cccc2[nH]c3ccccc3c12` (centres unmarked) [4′-hydroxyphenyl carvedilol], the “beta-blocking potency relative to carvedilol” value in series [1] is “approximately 13 times”.
Regarding `CC(NC(C)(C)C)C(=O)c1cccc(Cl)c1` (centres unmarked) [Bupropion, bupropion], the CYP2D6 inhibition entry in the series with CYP2D6 is “inhibits”.
With `CN[C@H]1CC[C@@H](c2ccc(Cl)c(Cl)c2)c2ccccc21` [Sertraline, sertraline], in series [2], the “decrease of carvedilol metabolisation rate” value was 63.63%. Besides, the CYP2C9 inhibition result in the series on CYP2C9 is reported as “weak inhibitor”. Also, the CYP2D6 inhibition result in the series on CYP2D6 is “moderate inhibitor”. Also, in the series with CYP1A2, the CYP1A2 inhibition entry is reported as “weak inhibitor”.
`COCCCC/C(=N\OCCN)c1ccc(C(F)(F)F)cc1` [Fluvoxamine, fluvoxamine]: the “decrease of carvedilol metabolisation rate” value in series [2] worked out at 25.19%. Further, the “inhibitory potency compared with citalopram” value in series [2] (based on metabolization rate and AUC0–30, citalopram data ref 20) is recorded as “stronger inhibitors than citalopram”. For the same compound, the CYP2C9 inhibition result in the series with CYP2C9 is “moderate inhibitor”. Besides, in the series on CYP2D6, the CYP2D6 inhibition result is “weak inhibitor”. The CYP1A2 inhibition entry in the series with CYP1A2 is given as “strong inhibitor”.
